Measured values as given in US20260049062A1, “SARS-COV-2 INHIBITORS FOR TREATING CORONAVIRUS INFECTIONS” (Insilico Medicine IP Limited, priority 2021, published 2026).

Test system: SARS-CoV-2
Experiment: In vitro antiviral cell-based assay (live SARS-CoV-2), plaque reduction assay in VeroE6 cells
Settings: Severe acute respiratory syndrome coronavirus 2, Vero, read-out: Vero EC50 (μM)

In the case of `CC(C(=O)NC1CCC(F)(F)CC1)(c1cncnc1)N(C(=O)[C@H](F)Cl)c1ccc(-c2cncs2)cc1` (single isomer, unassigned) [Example 1a], the EC50 is reported as 0.1 to 1 µM.
